What was measured:
LNCaP C4-2B = assay: Antiproliferative activity against human LNCaP C4-2B cells assessed as inhibition of cell growth by Celltiter-Glo assay; format: functional, cell-based
[1] = target: T1, Bromodomain-containing protein 9 (Homo sapiens, UniProt Q9H8M2); assay: Binding affinity to His6-tagged human BRD9 bromodomain (14 to 134 residues) expressed in Escherichia coli BL21 (DE3) assessed as dissociation constant by ITC analysis
T1 sequence (Q9H8M2 whole entry): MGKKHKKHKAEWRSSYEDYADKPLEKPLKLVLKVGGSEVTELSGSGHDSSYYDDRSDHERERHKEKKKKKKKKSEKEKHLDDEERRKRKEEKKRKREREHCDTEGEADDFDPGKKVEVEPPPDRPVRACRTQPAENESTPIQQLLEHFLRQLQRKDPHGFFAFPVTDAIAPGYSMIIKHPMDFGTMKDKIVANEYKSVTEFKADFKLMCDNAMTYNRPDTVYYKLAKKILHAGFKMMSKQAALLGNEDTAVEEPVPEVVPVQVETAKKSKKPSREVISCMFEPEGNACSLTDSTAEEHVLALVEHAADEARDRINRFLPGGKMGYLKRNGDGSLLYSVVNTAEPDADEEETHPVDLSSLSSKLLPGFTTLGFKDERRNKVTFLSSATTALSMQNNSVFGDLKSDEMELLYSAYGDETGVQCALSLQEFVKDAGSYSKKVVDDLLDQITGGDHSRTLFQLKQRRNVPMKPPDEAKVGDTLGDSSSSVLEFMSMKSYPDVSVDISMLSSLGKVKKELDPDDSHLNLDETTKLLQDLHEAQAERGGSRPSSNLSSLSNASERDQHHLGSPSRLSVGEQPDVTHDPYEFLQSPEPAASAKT

[2] = target: T2, Bromodomain-containing protein 2 (Homo sapiens, UniProt P25440); assay: Binding affinity to His6-tagged human BRD2 bromodomain-1 (77 to 194 residues) expressed in Escherichia coli BL21 (DE3) assessed as dissociation constant by ITC analysis
[3] = target: T3, Bromodomain-containing protein 4 (Homo sapiens, UniProt O60885); assay: Binding affinity to His6-tagged human BRD4 bromodomain-1 (44 to 168 residues) expressed in Escherichia coli BL21 (DE3) assessed as dissociation constant by ITC analysis
[4] = target: T4, Bromodomain testis-specific protein (Homo sapiens, UniProt Q58F21); assay: Binding affinity to His6-tagged human BRDT bromodomain-1 (21 to 137 residues) expressed in Escherichia coli BL21 (DE3) assessed as dissociation constant by ITC analysis
LNCaP = assay: Antiproliferative activity against human LNCaP cells assessed as cell growth inhibition by Celltiter-Glo assay; format: functional, cell-based
CWR22R = assay: Antiproliferative activity against human 22Rv1 cells assessed as cell growth inhibition by Celltiter-Glo assay; format: functional, cell-based
CREB-binding protein [5] = target: T5, CREB-binding protein (Homo sapiens, UniProt Q92793); conditions: dose 200.0 µM, time 30.0 min
Target sequence in this assay (Q92793 2-2442 limits assumed): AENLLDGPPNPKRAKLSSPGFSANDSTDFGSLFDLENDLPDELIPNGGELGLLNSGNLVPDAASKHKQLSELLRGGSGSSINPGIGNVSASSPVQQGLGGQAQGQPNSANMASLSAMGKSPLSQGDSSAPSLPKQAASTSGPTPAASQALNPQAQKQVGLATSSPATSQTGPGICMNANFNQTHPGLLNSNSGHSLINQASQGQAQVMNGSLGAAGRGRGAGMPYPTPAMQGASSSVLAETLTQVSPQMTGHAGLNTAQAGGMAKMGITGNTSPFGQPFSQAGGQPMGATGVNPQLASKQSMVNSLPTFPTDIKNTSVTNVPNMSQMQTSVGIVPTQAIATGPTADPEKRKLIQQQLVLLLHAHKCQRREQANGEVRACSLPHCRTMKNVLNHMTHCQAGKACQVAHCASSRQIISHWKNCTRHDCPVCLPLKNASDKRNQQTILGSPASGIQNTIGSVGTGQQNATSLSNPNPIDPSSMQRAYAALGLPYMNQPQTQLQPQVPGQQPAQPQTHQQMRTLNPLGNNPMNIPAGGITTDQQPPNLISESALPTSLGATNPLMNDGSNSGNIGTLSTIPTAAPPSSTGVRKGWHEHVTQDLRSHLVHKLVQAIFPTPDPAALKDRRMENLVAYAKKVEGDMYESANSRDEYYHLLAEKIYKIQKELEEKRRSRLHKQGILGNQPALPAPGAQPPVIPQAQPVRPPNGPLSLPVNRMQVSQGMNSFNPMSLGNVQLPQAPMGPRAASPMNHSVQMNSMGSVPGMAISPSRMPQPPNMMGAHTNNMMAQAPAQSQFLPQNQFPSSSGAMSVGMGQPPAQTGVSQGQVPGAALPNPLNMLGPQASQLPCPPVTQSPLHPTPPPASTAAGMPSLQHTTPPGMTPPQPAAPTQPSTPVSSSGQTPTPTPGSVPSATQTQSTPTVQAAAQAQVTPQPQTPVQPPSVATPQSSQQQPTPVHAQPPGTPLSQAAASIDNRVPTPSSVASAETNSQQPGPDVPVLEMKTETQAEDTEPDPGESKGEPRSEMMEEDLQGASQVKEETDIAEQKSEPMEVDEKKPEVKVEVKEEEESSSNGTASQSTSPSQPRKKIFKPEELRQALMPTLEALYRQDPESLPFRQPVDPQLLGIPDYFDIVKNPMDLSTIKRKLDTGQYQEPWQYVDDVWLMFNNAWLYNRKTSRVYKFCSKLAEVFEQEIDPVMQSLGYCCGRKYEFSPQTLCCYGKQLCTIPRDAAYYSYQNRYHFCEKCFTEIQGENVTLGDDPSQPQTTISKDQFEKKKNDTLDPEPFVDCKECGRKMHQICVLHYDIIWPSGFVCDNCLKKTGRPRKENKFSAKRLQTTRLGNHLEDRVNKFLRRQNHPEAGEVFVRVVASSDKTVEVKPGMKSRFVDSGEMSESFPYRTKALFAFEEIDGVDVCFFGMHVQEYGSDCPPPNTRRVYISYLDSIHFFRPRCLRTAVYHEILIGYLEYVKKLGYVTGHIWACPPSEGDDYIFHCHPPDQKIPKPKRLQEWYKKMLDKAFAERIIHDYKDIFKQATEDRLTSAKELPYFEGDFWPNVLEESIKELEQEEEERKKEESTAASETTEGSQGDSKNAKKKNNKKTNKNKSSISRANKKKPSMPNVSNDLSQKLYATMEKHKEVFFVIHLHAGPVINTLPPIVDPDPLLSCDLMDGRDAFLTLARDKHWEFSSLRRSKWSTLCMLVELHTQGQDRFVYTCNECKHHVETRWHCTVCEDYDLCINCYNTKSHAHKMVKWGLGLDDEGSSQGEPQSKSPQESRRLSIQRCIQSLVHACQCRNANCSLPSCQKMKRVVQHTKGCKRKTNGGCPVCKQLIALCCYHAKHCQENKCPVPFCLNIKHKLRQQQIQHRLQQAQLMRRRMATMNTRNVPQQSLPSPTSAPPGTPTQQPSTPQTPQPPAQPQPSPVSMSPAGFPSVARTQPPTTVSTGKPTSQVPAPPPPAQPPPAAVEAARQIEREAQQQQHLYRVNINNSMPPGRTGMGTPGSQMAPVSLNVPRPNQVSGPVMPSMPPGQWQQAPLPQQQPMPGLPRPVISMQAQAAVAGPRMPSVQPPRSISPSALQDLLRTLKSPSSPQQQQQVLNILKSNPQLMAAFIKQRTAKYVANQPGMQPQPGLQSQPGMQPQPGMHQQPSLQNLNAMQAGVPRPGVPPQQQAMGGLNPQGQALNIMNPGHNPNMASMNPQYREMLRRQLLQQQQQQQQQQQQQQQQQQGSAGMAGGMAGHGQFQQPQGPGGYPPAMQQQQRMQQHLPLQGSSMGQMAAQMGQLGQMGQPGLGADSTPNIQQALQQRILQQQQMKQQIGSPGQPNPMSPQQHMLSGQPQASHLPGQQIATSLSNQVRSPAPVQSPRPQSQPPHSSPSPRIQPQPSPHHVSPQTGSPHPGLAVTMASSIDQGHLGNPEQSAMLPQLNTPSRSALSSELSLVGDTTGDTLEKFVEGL

[6] = target: Histone acetyltransferase p300 (Homo sapiens) (UniProt Q09472); conditions: dose 200.0 µM, time 30.0 min
[7] = target: PH-interacting protein (Homo sapiens) (UniProt Q8WWQ0); conditions: dose 200.0 µM, time 30.0 min
[8] = target: Chromatin remodeling regulator CECR2 (Homo sapiens) (UniProt Q9BXF3); conditions: dose 200.0 µM, time 30.0 min
[9] = target: Bromodomain adjacent to zinc finger domain protein 2B (Homo sapiens) (UniProt Q9UIF8); conditions: dose 200.0 µM, time 30.0 min
[10] = target: Histone acetyltransferase KAT2B (Homo sapiens) (UniProt Q92831); conditions: dose 200.0 µM, time 30.0 min
[11] = target: T3, Bromodomain-containing protein 4; conditions: dose 200.0 µM, time 30.0 min
[12] = target: T3, Bromodomain-containing protein 4; conditions: dose 200.0 µM, time 30.0 min; remark: listed apart in the source
[13] = target: T6, Bromodomain-containing protein 3 (Homo sapiens, UniProt Q15059); conditions: dose 200.0 µM, time 30.0 min
[14] = target: T6, Bromodomain-containing protein 3; conditions: dose 200.0 µM, time 30.0 min; remark: listed apart in the source
[15] = target: T2, Bromodomain-containing protein 2; conditions: dose 200.0 µM, time 30.0 min
Target sequence in this assay (P25440 whole entry, looked up, the tested form may be a part): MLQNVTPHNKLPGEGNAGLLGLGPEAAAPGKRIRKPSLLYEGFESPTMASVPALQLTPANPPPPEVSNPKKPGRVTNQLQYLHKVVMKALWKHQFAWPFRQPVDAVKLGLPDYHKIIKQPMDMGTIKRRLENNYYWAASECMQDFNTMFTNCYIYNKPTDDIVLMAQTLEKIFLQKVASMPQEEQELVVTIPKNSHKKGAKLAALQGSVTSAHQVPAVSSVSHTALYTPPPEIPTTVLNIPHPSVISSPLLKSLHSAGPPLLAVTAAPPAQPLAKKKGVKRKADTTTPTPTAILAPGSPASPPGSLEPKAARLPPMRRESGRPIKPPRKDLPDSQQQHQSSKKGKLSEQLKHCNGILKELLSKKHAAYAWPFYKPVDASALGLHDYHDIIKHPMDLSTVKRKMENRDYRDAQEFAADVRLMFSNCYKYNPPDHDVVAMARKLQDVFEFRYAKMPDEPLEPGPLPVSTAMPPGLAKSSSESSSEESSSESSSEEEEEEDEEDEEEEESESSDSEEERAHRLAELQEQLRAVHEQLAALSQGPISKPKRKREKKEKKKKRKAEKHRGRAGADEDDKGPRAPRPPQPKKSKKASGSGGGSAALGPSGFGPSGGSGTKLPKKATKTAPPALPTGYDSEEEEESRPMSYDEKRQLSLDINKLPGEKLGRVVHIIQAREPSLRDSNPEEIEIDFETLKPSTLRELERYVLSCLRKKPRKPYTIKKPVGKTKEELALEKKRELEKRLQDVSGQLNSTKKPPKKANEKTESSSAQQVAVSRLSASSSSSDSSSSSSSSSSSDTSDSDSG

[16] = target: T2, Bromodomain-containing protein 2; conditions: dose 200.0 µM, time 30.0 min; remark: listed apart in the source
Target sequence in this assay (P25440 whole entry, looked up, the tested form may be a part): as above

[17] = target: T4, Bromodomain testis-specific protein; conditions: dose 200.0 µM, time 30.0 min
[18] = target: T4, Bromodomain testis-specific protein; conditions: dose 200.0 µM, time 30.0 min; remark: listed apart in the source
[19] = target: SWI/SNF-related matrix-associated actin-dependent regulator of chromatin subfamily A member 2 (Homo sapiens) (UniProt P51531); conditions: dose 200.0 µM, time 30.0 min
[20] = target: T7, Bromodomain-containing protein 9 (Homo sapiens) (UniProt Q9H8M2); conditions: dose 200.0 µM, time 30.0 min
T7 sequence (whole entry): T1 sequence (Q9H8M2 whole entry)

[21] = AUC (0 to infinity) in Sprague-Dawley rat at 25 mg/kg, po measured up to 24 hrs; format: ADME, organism-based; set-up: time < 24 hrs, dose 25 mg/kg, route po; conditions: in vivo
CREB-binding protein [22] = target: T5, CREB-binding protein; assay: Inhibition of His6-tagged human CBP bromodomain (1081 to 1197 residues) expressed in Escherichia coli BL21 (DE3) incubated for 30 mins by HTRF assay
[23] = AUC (0 to infinity) in Sprague-Dawley rat at 5 mg/kg, iv administered as single dose measured up to 24 hrs; format: ADME, organism-based; set-up: time < 24 hrs, dose 5 mg/kg, route iv; conditions: in vivo, 24 h
[24] = Cmax in Sprague-Dawley rat at 25 mg/kg, po measured up to 24 hrs; format: ADME, organism-based; set-up: dose 25 mg/kg, time < 24 hrs, route po; conditions: in vivo
[25] = Clearance in Sprague-Dawley rat at 5 mg/kg, iv administered as single dose measured up to 24 hrs; format: ADME, organism-based; conditions: Sprague-Dawley, in vivo
[26] = Half life in Sprague-Dawley rat at 25 mg/kg, po measured up to 24 hrs; format: ADME, organism-based; conditions: in vivo
[27] = Half life in Sprague-Dawley rat at 5 mg/kg, iv administered as single dose measured up to 24 hrs; format: ADME, organism-based; conditions: in vivo, iv, 5 mg/kg, 24 h
[28] = Oral bioavailability in Sprague-Dawley rat at 25 mg/kg measured up to 24 hrs; format: ADME, organism-based; conditions: in vivo
[29] = Metabolic stability in rat liver microsomes assessed as parent compound remaining at 1 uM incubated for 45 mins in presence of NADPH by LC-MS/MS analysis; format: ADME, Microsome; conditions: read-out: Stability
[30] = Metabolic stability in human liver microsomes assessed as parent compound remaining at 1 uM incubated for 45 mins in presence of NADPH by LC-MS/MS analysis; format: ADME, Microsome; conditions: read-out: Stability
[31] = Half life in rat liver microsomes at 1 uM incubated for 45 mins in presence of NADPH by LC-MS/MS analysis; format: ADME, Microsome
[32] = Half life in human liver microsomes at 1 uM incubated for 45 mins in presence of NADPH by LC-MS/MS analysis; format: ADME, Microsome
[33] = Intrinsic clearance in rat liver microsomes at 1 uM incubated for 45 mins in presence of NADPH by LC-MS/MS analysis; format: ADME, Microsome; conditions: read-out: CLH
[34] = Intrinsic clearance in human liver microsomes at 1 uM incubated for 45 mins in presence of NADPH by LC-MS/MS analysis; format: ADME, Microsome; conditions: read-out: CLH
[35] = Hepatic clearance in human liver microsomes at 1 uM incubated for 45 mins in presence of NADPH by LC-MS/MS analysis; format: ADME, Microsome; conditions: read-out: CLH
[36] = Hepatic clearance in rat liver microsomes at 1 uM incubated for 45 mins in presence of NADPH by LC-MS/MS analysis; format: ADME, Microsome
[37] = Hepatic extraction ratio in human liver microsomes at 1 uM incubated for 45 mins in presence of NADPH by LC-MS/MS analysis; format: ADME, Microsome; conditions: read-out: ERH
[38] = Apparent permeability across apical to basolateral side in human Caco-2 cells at 10 uM measured after 2 hrs by LC-MS/MS analysis; format: ADME, cell-based
[39] = Apparent permeability across basolateral to apical side in human Caco-2 cells at 10 uM measured after 2 hrs by LC-MS/MS analysis; format: ADME, cell-based
[40] = Efflux ratio of apparent permeability across basolateral to apical side over apical to basolateral side in human Caco-2 cells at 10 uM measured after 2 hrs by LC-MS/MS analysis; format: ADME, cell-based
[41] = Apparent permeability across apical to basolateral side in human Caco-2 cells assessed as drug recovery at 10 uM measured after 2 hrs by LC-MS/MS analysis; format: ADME, cell-based; conditions: read-out: Drug recovery
[42] = Apparent permeability across basolateral to apical side in human Caco-2 cells assessed as drug recovery at 10 uM measured after 2 hrs by LC-MS/MS analysis; format: ADME, cell-based; conditions: read-out: Drug recovery
in vitro = conditions: rat, liver microsomes
Description: Hepatic extraction ratio in rat liver microsomes at 1 uM incubated for 45 mins in presence of NADPH by LC-MS/MS analysis

T6 sequence (Q15059 2-726 limits assumed): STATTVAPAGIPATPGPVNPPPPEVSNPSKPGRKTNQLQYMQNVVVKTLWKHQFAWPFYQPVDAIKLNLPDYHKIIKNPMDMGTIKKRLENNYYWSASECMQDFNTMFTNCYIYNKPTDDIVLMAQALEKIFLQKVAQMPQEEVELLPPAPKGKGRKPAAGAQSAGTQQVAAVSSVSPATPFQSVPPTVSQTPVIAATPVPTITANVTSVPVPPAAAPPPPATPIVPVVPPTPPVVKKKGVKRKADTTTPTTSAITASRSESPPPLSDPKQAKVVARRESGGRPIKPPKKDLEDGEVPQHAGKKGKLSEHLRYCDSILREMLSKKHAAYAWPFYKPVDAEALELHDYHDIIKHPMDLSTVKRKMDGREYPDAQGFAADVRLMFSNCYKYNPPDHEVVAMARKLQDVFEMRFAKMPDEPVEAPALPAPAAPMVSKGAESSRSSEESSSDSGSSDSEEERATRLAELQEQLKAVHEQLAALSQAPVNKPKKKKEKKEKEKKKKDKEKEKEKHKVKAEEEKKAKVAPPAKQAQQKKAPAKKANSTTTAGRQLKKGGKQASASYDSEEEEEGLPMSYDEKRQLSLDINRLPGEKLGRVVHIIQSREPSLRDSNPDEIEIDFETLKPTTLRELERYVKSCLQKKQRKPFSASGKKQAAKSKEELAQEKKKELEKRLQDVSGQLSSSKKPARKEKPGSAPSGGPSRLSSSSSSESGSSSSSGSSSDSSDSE
Chain of Histone acetyltransferase KAT2B (Homo sapiens) (Q92831 whole entry, looked up): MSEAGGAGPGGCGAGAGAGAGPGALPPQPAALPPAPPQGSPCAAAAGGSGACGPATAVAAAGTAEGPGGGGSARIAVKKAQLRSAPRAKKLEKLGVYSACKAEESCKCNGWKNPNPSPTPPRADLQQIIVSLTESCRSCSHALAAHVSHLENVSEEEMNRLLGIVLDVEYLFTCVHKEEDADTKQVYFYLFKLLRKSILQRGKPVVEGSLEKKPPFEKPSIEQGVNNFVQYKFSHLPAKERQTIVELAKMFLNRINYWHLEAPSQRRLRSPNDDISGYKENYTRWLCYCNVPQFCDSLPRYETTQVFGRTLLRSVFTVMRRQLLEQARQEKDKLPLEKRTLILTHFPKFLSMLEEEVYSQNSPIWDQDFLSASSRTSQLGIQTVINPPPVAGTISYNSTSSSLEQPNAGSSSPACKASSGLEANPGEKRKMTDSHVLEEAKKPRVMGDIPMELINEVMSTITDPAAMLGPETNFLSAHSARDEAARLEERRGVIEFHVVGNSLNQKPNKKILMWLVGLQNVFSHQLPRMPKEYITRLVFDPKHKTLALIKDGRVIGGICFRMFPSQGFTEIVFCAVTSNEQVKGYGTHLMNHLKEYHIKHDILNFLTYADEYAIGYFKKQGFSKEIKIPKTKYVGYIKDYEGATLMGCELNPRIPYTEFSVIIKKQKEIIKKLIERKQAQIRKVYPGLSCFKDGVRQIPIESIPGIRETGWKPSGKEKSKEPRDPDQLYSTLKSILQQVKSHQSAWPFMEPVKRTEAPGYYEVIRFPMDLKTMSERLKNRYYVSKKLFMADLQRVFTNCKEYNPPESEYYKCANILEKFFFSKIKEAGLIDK

Structure (SMILES): CO[C@H]1CC[C@H](n2c([C@@H]3CCCC(=O)N3c3ccc(F)c(F)c3)nc3cc(-c4c(C)noc4C)ccc32)CC1 [INOBRODIB]
- IC50 (LNCaP C4-2B): 1650 nM
- Kd [1]: 2610 nM
- Kd [2]: 390 nM
- Kd [3]: 360 nM
- Kd [4]: 1120 nM
- IC50 (LNCaP): 60 nM
- IC50 (CWR22R): 420 nM
- ΔTm (CREB-binding protein [5]): 17.5 °C
- ΔTm [6]: 17.5 °C
- ΔTm [7]: 0 °C
- ΔTm [8]: 0 °C
- ΔTm [9]: -0.5 °C
- ΔTm [10]: -0.5 °C
- ΔTm [11]: 6.3 °C
- ΔTm [12]: 1.3 °C
- ΔTm [13]: 5.5 °C
- ΔTm [14]: 2 °C
- ΔTm [15]: 3.8 °C
- ΔTm [16]: 2.3 °C
- ΔTm [17]: 2.5 °C
- ΔTm [18]: 0.5 °C
- ΔTm [19]: 0 °C
- ΔTm [20]: 4.3 °C

Structure (SMILES): CC(=O)c1cc(C(=O)Nc2cc(CO)cc(-c3cnn(C4CC4)c3)c2F)c2cc(OC(=O)N(C)C)ccn12
- AUC(0-inf) [21]: 9450 ng·h/mL
- IC50 (CREB-binding protein [22]): 21.3 nM
- IC50 (LNCaP C4-2B): > 5000 nM
- AUC [23]: 29943.87 ng·h/mL
- Cmax [24]: 2040 ng/mL
- clearance [25]: 2.83 mL/min/kg
- half-life [26]: 194 min
- t1/2 [27]: 96 min
- bioavailability [28]: 6.18%
- remaining at 0.75 h, 1 µM [29]: 44.7%
- remaining at 0.75 h, 1 µM [30]: 16.9%
- half-life at 1 µM [31]: 39.3 min
- half-life at 1 µM [32]: 17.7 min
- CLint scaled at 1 µM [33]: 63.3 mL/min/kg
- CLint scaled at 1 µM [34]: 98.2 mL/min/kg
- CLint scaled at 1 µM [35]: 35.3 mL/min/kg
- CLhep predicted at 1 µM [36]: 15.6 mL/min/kg
- hepatic extraction ratio at 0.75 h, 1 µM [37]: 0.64
- Papp A→B at 2 h, 10 µM [38]: 0.2 ×10⁻⁶ cm/s
- Papp B→A at 2 h, 10 µM [39]: 2.89 ×10⁻⁶ cm/s
- efflux ratio at 2 h, 10 µM [40]: 14.2
- recovery at 2 h, 10 µM [41]: 107%
- recovery at 2 h, 10 µM [42]: 95.8%
- IC50 (LNCaP): 360 nM
- IC50 (CWR22R): > 5000 nM
- ΔTm (CREB-binding protein [5]): 11.5 °C
- ΔTm [6]: 11.8 °C
- ΔTm [7]: 0 °C
- ΔTm [8]: -0.2 °C
- ΔTm [9]: -0.2 °C
- ΔTm [10]: -0.6 °C
- ΔTm [11]: 0.5 °C
- ΔTm [12]: -1.5 °C
- ΔTm [13]: 0 °C
- ΔTm [14]: -1 °C
- ΔTm [15]: -0.3 °C
- ΔTm [16]: 0 °C
- ΔTm [17]: -0.5 °C
- ΔTm [18]: -3 °C
- ΔTm [19]: -0.3 °C
- ΔTm [20]: 1.5 °C
- hepatic extraction ratio at 0.75 h, 1 µM (in vitro): 0.753

From ChEMBL document CHEMBL5154675, “Design, Synthesis, and Biological Evaluation of 1-(Indolizin-3-yl)ethan-1-ones as CBP Bromodomain Inhibitors for the Treatment of Prostate Cancer” (J Med Chem, 2022)
